Laboratory results as given in ChEMBL document CHEMBL1949619, “Synthesis of potent oxindole CDK2 inhibitors” (Bioorg Med Chem, 2003).

How the values were obtained:
[1] = molecular target: Cyclin-dependent kinase 2/cyclin E1 (Homo sapiens, UniProt P24941); test: Inhibition of human CDK2/CyclinE expressed in baculovirus insect cell system using Rb as substrate after 30 mins by scintillation counting
RKO = test: Antiproliferative activity against human RKO cells after 5 days by MTT assay; assay type: functional, cell-based; settings: 120 h
MDA-MB-435 = test: Antiproliferative activity against human MDA-MB-435 cells after 5 days by MTT assay; assay type: functional, cell-based; settings: MDA-MB-435, 120 h
[2] = Cell cycle arrest in human 1043SK cells assessed as accumulation at G1 phase measuring reduction of BrdU incorporation of into cellular DNA by ELISA; assay type: functional, cell-based

Row | Compound | IC50 [1] [µM] | IC50 (RKO) [µM] | IC50 (MDA-MB-435) [µM] | IC50 [2] [µM]
1 | COc1cc[nH]c1/C=C1\C(=O)Nc2ccccc21 | 5.36 |  |  | 
2 | COc1cc[nH]c1/C=C1\C(=O)Nc2ccc(F)cc21 | 0.847 | 11.9 | > 30 | 
3 | COc1ccc2c(c1)/C(=C/c1[nH]ccc1OC)C(=O)N2 | 0.209 | 3.86 | 8.08 | 
4 | COc1cc[nH]c1/C=C1\C(=O)Nc2ccc([N+](=O)[O-])cc21 | 0.039 | 0.692 | 7.46 | 
5 | COc1cc[nH]c1/C=C1\C(=O)Nc2ccc([N+](=O)[O-])c(-n3ccnc3)c21 | 1.75 | 3.92 | > 30 | 
6 | COc1cc[nH]c1/C=C1\C(=O)Nc2ccc([N+](=O)[O-])c(N3CCNC(C(N)=O)C3)c21 (centres undefined) | 0.028 | 0.449 | 1.27 | 
7 | COc1cc[nH]c1/C=C1\C(=O)Nc2ccc([N+](=O)[O-])c(N3CCCC(C(N)=O)C3)c21 (centres undefined) | 0.006 | 0.192 | 0.623 | 
8 | COc1cc[nH]c1/C=C1\C(=O)Nc2ccc([N+](=O)[O-])c(N3CC[C@H](C(N)=O)C3)c21 | 0.005 | 0.05 | 0.163 | 
9 | COc1cc[nH]c1/C=C1\C(=O)Nc2ccc([N+](=O)[O-])c(N3CC[C@@H](O)C3)c21 | 0.003 | 0.032 | 0.088 | 0.83
10 | COc1cc[nH]c1/C=C1\C(=O)Nc2ccc([N+](=O)[O-])c(N3CC[C@H](O)C3)c21 | 0.005 | 0.037 | 0.104 | 
11 | COc1cc[nH]c1/C=C1\C(=O)Nc2ccc([N+](=O)[O-])c(N3CCCC(O)C3)c21 (centres undefined) | 0.002 | 0.105 | 0.25 | 
12 | COc1cc[nH]c1/C=C1\C(=O)Nc2ccc([N+](=O)[O-])c(N3CCC(O)CC3)c21 | 0.004 | < 0.01 | 0.046 | 
13 | COc1cc[nH]c1/C=C1\C(=O)Nc2ccc([N+](=O)[O-])c(N3CCCC(CO)C3)c21 (centres undefined) | 0.002 | 0.124 | 0.441 | 
14 | COc1cc[nH]c1/C=C1\C(=O)Nc2ccc([N+](=O)[O-])c(N[C@H]3CC[C@H](O)CC3)c21 | 0.006 | 8.04 | 8.55 | 
15 | COc1cc[nH]c1/C=C1\C(=O)Nc2ccc([N+](=O)[O-])c(NC3CCNCC3)c21 | 0.005 | 0.024 | 0.139 | 
16 | COc1cc[nH]c1/C=C1\C(=O)Nc2ccc([N+](=O)[O-])c(N3CCC(N)CC3)c21 | 0.005 | < 0.01 | < 0.01 | 
17 | COc1cc[nH]c1/C=C1\C(=O)Nc2ccc([N+](=O)[O-])c(N3CC[C@@H](N)C3)c21 | 0.003 | < 0.01 | < 0.01 | 
18 | COc1cc[nH]c1/C=C1\C(=O)Nc2ccc([N+](=O)[O-])c(N3CC[C@@H](NC=O)C3)c21 | 0.003 | 0.032 | 0.033 | 
19 | COc1cc[nH]c1/C=C1\C(=O)Nc2ccc([N+](=O)[O-])c(N[C@H]3CC[C@H](N)C3)c21 (racemic) | 0.005 | < 0.015 | 0.061 | 
20 | COc1cc[nH]c1/C=C1\C(=O)Nc2ccc([N+](=O)[O-])c(N[C@H]3CC[C@H](O)C3)c21 (racemic) | 0.005 | 0.339 | 1 | 
